# US9988626B2, “Neurocalcin delta inhibitors and therapeutic and non-therapeutic uses thereof” (Universität Zu Köln, priority 2013, dated 2018)
# Experiments:
# zebrafish embryos = assay: Whole cell current clamp recordings of endplate potentials in zebrafish ventral fast muscle cells; type: in vivo
# Protocol: Experiments were conducted with zebrafish embryos (wildtype (wt) contras, smn-, ncald-, and smn/ncald-morphants) 72 hours post fertilization. The animals were anesthetized with 0.02% tricaine (in saline; E10521, Sigma-Aldrich, Taufkirchen, Germany) for 1-2 min and then rinsed with saline. The saline contained (in mM): 134 NaCl, 2.9 KCl, 2.1 CaCl2, 1.2 MgCl2, 10 HEPES, 10 Glucose adjusted to pH 7.8 with NaOH. The fish were decapitated and pinned under saline in a Sylgard-coated (SYLG184, Dow Coming, Midland, Mich.) recording chamber (˜3 ml volume). The skin was peeled off using a sharp tungsten pin and fine forceps and the preparation was incubated in 3 M formamide (in saline; 6749.1, Carl Roth GmbH, Karlsruhe) for 2 min to prevent muscle contractions. After rinsing the preparation, the superficial layer of ventral slow muscle cells was removed by gently scratching with a fine tungsten pin to expose deeper lying fast skeletal muscle cells. Remaining superficial slow muscles in the segments of interest were removed with a low resistance pipette (˜2 MΩ). […] Muscle cells were visualized with a fixed-stage upright microscope (Zeiss Axio Examiner, Carl Zeiss Microscopy GmbH, Jena, Germany), using a 40× water immersion objective (W Plan-Apochromat, 40×; 1.0 numerical aperture; 2.5 mm working distance; Zeiss) with infrared-differential interference contrast (Dodt and Zieglgansberger 1990) and fluorescence optics. […]
# Whole-cell patch clamp recordings in current-clamp mode were performed with an EPC10 patch-clamp amplifier (HEKA-Elektronik, Lambrecht, Germany) that was controlled by the program Patchmaster (version 2.53, HEKA-Elektronik) running under Windows. […] The calculated liquid junction potential between intracellular and extracellular solution of 5.8 mV (calculated with Patcher's-Power-Tools plug-in from http://www.mpibpc.gwdg.de/abteilungen/140/software/index.html for Igor Pro 6 [Wavemetrics, Portland, Oreg., USA]) was also compensated. Whole-cell capacitance was determined by using the capacitance compensation (C-slow) of the EPC10. […]
# zebrafish larvae = assay: High-speed tracking of zebrafish swimming velocity after electric stimulation; type: in vivo; settings: 48 hpf zebrafish, n=30 per treatment
# Protocol: To analyse the swimming behaviour of zebrafish morphants, high-speed imaging was performed. In brief 30 zebrafish larvae, all treated with each respective morpholino, were placed in a 10 cm petri dish containing fish embryo medium. To trigger a swimming response, fish were stimulated with an electrical impulse (60 V; delay: 60 ms, duration: 4 ms, frequency: 6 pps (SD9 Stimulator)). Swimming behaviour was recorded with 120 frames per second using a high-speed camera (FC-100, Casio). Quality of the high-speed video was optimized for analysis (Adobe) and afterwards swimming velocity and distance was analysed using LoliTrack software (Loligo Systems).
substance,measurement,setting,value
"smn MO: previously published morpholino knocking down zebrafish smn, CGACATCTTCTGCACCATTGGC (all phosphorodiamidate morpholino (PMO))",Frequency of large NMDA-induced EPP / action potentials,"zebrafish embryos; 72 hpf zebrafish, ventral fast muscle cells, NMDA (100 μM) stimulation",0.37±0.17 Hz
same,Spontaneous mEPP frequency at rest,"zebrafish embryos; 72 hpf zebrafish, ventral fast muscle cells, without stimulation",0.32±0.16 Hz
same,Resting and NMDA induced EPP activity,zebrafish embryos; zebrafish morphants compared to wild type,significant reduction of the mEPP and the EPP rate
same,Swimming velocity after electrical stimulation,zebrafish larvae,significantly reduced velocity
